Results: patent US20210017174A1, “IDENTIFICATION AND USE OF ERK5 INHIBITOR” (Bayer Aktiengesellschaft, priority 2018, published 2021)

Molecular target: T1, ERK5 (Homo sapiens, UniProt Q13164)
T1 construct: host or cells: E. coli
Test: TR-FRET-based Erk5 activity inhibition assay (biochemical assay ERK5)
Details: for IC50: TR-FRET, 250 μM ATP, 1 μM substrate peptide, 60 min at 22° C., read-out: IC50 value biochemiocal ERK5 asssay; for inhibition at 20 µM: read-out: inhibition in biochemical ERK5 assay at a single concentration

T1 sequence (Q13164 1-398): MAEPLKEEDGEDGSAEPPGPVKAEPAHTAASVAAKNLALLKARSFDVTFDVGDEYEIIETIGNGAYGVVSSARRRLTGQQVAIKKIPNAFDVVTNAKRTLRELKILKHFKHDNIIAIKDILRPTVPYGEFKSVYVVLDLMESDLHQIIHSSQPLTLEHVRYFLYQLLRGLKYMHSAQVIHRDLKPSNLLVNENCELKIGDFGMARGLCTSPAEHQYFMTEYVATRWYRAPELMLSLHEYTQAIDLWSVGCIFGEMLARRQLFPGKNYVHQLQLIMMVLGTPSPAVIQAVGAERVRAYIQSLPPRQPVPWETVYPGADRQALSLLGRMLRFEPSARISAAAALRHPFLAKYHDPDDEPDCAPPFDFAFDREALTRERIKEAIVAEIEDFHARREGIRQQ

SMILES | IC50 [nM] | inhibition at 20 µM [%]
COc1cc2ncnc(C3CCN(C(=O)c4ccc(Cl)cc4)CC3)c2cc1OC [Example 4, 4-[1-(4-Chlorobenzoyl)piperidin-4-yl]-6,7-dimethoxyquinazoline] | 770 | 
COc1cc2ncnc(C3CCN(C(=O)c4ccccc4)CC3)c2cc1OC [Example 9, [4-(6,7-Dimethoxyquinazolin-4-yl)piperidin-1-yl](phenyl)methanone] | 6170 | 
COc1cc2ncnc(C3CCN(C(=O)c4ccc(Br)cc4)CC3)c2cc1OC [Example 12, (4-Bromophenyl)[4-(6,7-dimethoxyquinazolin-4-yl)piperidin-1-yl]methanone] | 190 | 
COc1cc2ncnc(C3CCN(C(=O)c4ccc(C(C)C)cc4)CC3)c2cc1OC [Example 18, [4-(6,7-Dimethoxyquinazolin-4-yl)piperidin-1-yl][4-(propan-2-yl)phenyl]-methanone] | 358 | 
COc1cc2ncnc(C3CCN(C(=O)c4ccc(OC(F)F)cc4)CC3)c2cc1OC [Example 19, [4-(Difluoromethoxy)phenyl][4-(6,7-dimethoxyquinazolin-4-yl)piperidin-1-yl]methanone] | 165 | 
CCCc1ccc(C(=O)N2CCC(c3ncnc4cc(OC)c(OC)cc34)CC2)cc1 [Example 20, [4-(6,7-Dimethoxyquinazolin-4-yl)piperidin-1-yl](4-propylphenyl)methanone] | 281 | 
COc1cc2ncnc(C3CCN(C(=O)c4ccc(COCC(F)(F)F)cc4)CC3)c2cc1OC [Example 21, [4-(6,7-Dimethoxyquinazolin-4-yl)piperidin-1-yl]{4-[(2,2,2-trifluoroethoxy)methyl]phenyl}-methanone] | 2660 | 
COCCOc1ccc(C(=O)N2CCC(c3ncnc4cc(OC)c(OC)cc34)CC2)cc1 [Example 24, [4-(6,7-Dimethoxyquinazolin-4-yl)piperidin-1-yl][4-(2-methoxyethoxy)phenyl]-methanone] | 9660 | 
COc1cc2ncnc(C3CCN(C(=O)c4ccccc4OC(F)(F)F)CC3)c2cc1OC [Example 28, [4-(6,7-Dimethoxyquinazolin-4-yl)piperidin-1-yl][2-(trifluoromethoxy)phenyl]-methanone] |  | 16
O=C(O)c1ccc2c(C3CCN(C(=O)c4ccc(OC(F)(F)F)cc4)CC3)ncnc2c1 [Example 32, 4-{1-[4-(Trifluoromethoxy)benzoyl]piperidin-4-yl}quinazoline-7-carboxylic Acid] |  | 44.2
NC(=O)c1ccc2c(C3CCN(C(=O)c4ccc(OC(F)(F)F)cc4)CC3)ncnc2c1 [Example 33, 4-{1-[4-(Trifluoromethoxy)benzoyl]piperidin-4-yl}quinazoline-7-carboxamide] | 253 | 
N#Cc1ccc2c(C3CCN(C(=O)c4ccc(OC(F)(F)F)cc4)CC3)ncnc2c1 [Example 34, 4-{1-[4-(Trifluoromethoxy)benzoyl]piperidin-4-yl}quinazoline-7-carbonitrile] | 506 | 
O=C(c1ccc(OC(F)(F)F)cc1)N1CCC(c2ncnc3cc(O)ccc23)CC1 [Example 36, [4-(7-Hydroxyquinazolin-4-yl)piperidin-1-yl][4-(trifluoromethoxy)phenyl]-methanone] | 192 | 
Nc1ccc2c(C3CCN(C(=O)c4ccc(OC(F)(F)F)cc4)CC3)ncnc2c1 [Example 37, [4-(7-Aminoquinazolin-4-yl)piperidin-1-yl][4-(trifluoromethoxy)phenyl]-methanone] | 867 | 
CC(=O)Nc1ccc2c(C3CCN(C(=O)c4ccc(OC(F)(F)F)cc4)CC3)ncnc2c1 [Example 38, N-(4-{1-[4-(Trifluoromethoxy)benzoyl]piperidin-4-yl}quinazolin-7-yl)acetamide] | 1270 | 
CS(=O)(=O)Nc1ccc2c(C3CCN(C(=O)c4ccc(OC(F)(F)F)cc4)CC3)ncnc2c1 [Example 39, N-(4-{1-[4-(Trifluoromethoxy)benzoyl]piperidin-4-yl}quinazolin-7-yl)methane-sulfonamide] | 351 | 
O=C(c1ccc(OC(F)(F)F)cc1)N1CCC(c2ncnc3cc(Br)ccc23)CC1 [Example 40, [4-(7-Bromoquinazoline-4-yl)piperidin-1-yl][4-(trifluoromethoxy)phenyl]-methanone] | 224 | 
CN(C)C(=O)c1ccc2c(C3CCN(C(=O)c4ccc(OC(F)(F)F)cc4)CC3)ncnc2c1 [Example 42, N,N-Dimethyl-4-{1-[4-(trifluoromethoxy)benzoyl]piperidin-4-yl}quinazoline-7-carboxamide] | 980 | 
O=C(c1ccc2c(C3CCN(C(=O)c4ccc(OC(F)(F)F)cc4)CC3)ncnc2c1)N1CCCC1 [Example 43, Pyrrolidin-1-yl(4-{1-[4-(trifluoromethoxy)benzoyl]piperidin-4-yl}quinazolin-7-yl)methanone] | 1590 | 
O=C(c1ccc2c(C3CCN(C(=O)c4ccc(OC(F)(F)F)cc4)CC3)ncnc2c1)N1CCOCC1 [Example 44, Morpholin-4-yl(4-{1-[4-(trifluoromethoxy)benzoyl]piperidin-4-yl}quinazolin-7-yl)methanone] | 2240 | 
O=C(Nc1ccccc1)c1ccc2c(C3CCN(C(=O)c4ccc(OC(F)(F)F)cc4)CC3)ncnc2c1 [Example 45, N-Phenyl-4-{1-[4-(trifluoromethoxy)benzoyl]piperidin-4-yl}quinazoline-7-carboxamide] | 3260 | 
CC(C)COc1ccc2c(C3CCN(C(=O)c4ccc(OC(F)(F)F)cc4)CC3)ncnc2c1 [Example 46, {4-[7-(2-Methylpropoxy)quinazolin-4-yl]piperidin-1-yl}[4-(trifluoromethoxy)-phenyl]methanone] | 293 | 
O=C(c1ccc(OC(F)(F)F)cc1)N1CCC(c2ncnc3cc(OCC4COC4)ccc23)CC1 [Example 48, {4-[7-(Oxetan-3-ylmethoxy)quinazolin-4-yl]piperidin-1-yl}[4-(trifluoromethoxy)-phenyl]methanone] | 270 | 
O=C(c1ccc(OC(F)(F)F)cc1)N1CCC(c2ncnc3cc(N4CCCCC4=O)ccc23)CC1 [Example 55, 1-(4-{1-[4-(Trifluoromethoxy)benzoyl]piperidin-4-yl}quinazolin-7-yl)piperidin-2-one] | 1300 | 
CN(C)CCOc1ccc2c(C3CCN(C(=O)c4ccc(OC(F)(F)F)cc4)CC3)ncnc2c1 [Example 56, Formic Acid—(4-{7-[2-(dimethylamino)ethoxy]quinazolin-4-yl}piperidin-1-yl)[4-(trifluoromethoxy)phenyl]methanone (1:1)] | 198 | 
O=C(c1ccc(OC(F)(F)F)cc1)N1CCC(c2ncnc3ccccc23)CC1 [Example 58, [4-(Quinazolin-4-yl)piperidin-1-yl][4-(trifluoromethoxy)phenyl]methanone] | 1680 | 
COc1ccc2c(C3CCN(C(=O)c4ccc(OC(F)(F)F)cc4C)CC3)ncnc2c1 [Example 61, [4-(7-Methoxyquinazolin-4-yl)piperidin-1-yl][2-methyl-4-(trifluoromethoxy)-phenyl]methanone] | 504 | 
COc1ccc2c(C3CCN(C(=O)c4ccc(OC(F)(F)F)c(C)c4)CC3)ncnc2c1 [Example 62, [4-(7-Methoxyquinazolin-4-yl)piperidin-1-yl][3-methyl-4-(trifluoromethoxy)-phenyl]methanone] | 274 | 
CC(C)(O)COc1ccc2c(C3CCN(C(=O)c4ccc(OC(F)(F)F)cc4)CC3)ncnc2c1 [Example 63, {4-[7-(2-Hydroxy-2-methylpropoxy)quinazolin-4-yl]piperidin-1-yl}[4-(trifluoro-methoxy)phenyl]-methanone] | 274 | 
